The structures appear in SMILES notation.

We go through 40 compounds from ChEMBL document CHEMBL3616425, “Factors influencing the cytotoxicity of α-methylene-γ-hydroxy esters against pancreatic cancer” (2015).

Type in all cases: functional
Experiment [1] can be described thus: Cytotoxicity against human PANC1 cells assessed as cell growth at 10 uM after 72 hrs by Cell Titer 96 cell proliferation assay relative to control. Conditions: PANC-1, 72 h, read-out: Activity.
A short description of experiment [2]: Cytotoxicity against human BxPC3 cells assessed as cell growth at 10 uM after 72 hrs by Cell Titer 96 cell proliferation assay relative to control. Conditions: BXPC-3, 72 h, read-out: Activity.
Experiment [3] in a line: Cytotoxicity against human MIAPaCa2 cells assessed as cell growth at 10 uM after 72 hrs by Cell Titer 96 cell proliferation assay relative to control. Conditions: MIA PaCa-2, 72 h, read-out: Activity.

On to `C=C(C(=O)OC)[C@@H](c1ccccc1)[C@H](O)c1ccccc1` (relative stereo), for which the growth at 10 µM is 14% in experiment [1], 2% in experiment [2] and 9% in experiment [3].
With `C=C(C(=O)OC)[C@@H](C1CCCCC1)[C@@H](C)O` (relative stereo), the results for the growth at 10 µM in experiment [1], in experiment [2] and in experiment [3] were 145%, 120% and 77%, respectively.
As for `C=C(C(=O)OCc1ccccc1)[C@@H](c1ccccc1)[C@H](O)c1ccccc1` (relative stereo), the growth at 10 µM in experiment [1] was 6%; in experiment [2], 2%; in experiment [3], 12%.
For `C=C(C(=O)O)C(O)c1ccc(C(F)(F)F)cc1` (stereo not given), the growth at 10 µM was 129% in experiment [1], 121% in experiment [2] and 119% in experiment [3].
For `C=C(C(=O)OCC)[C@@H](c1ccccc1)[C@H](O)c1ccccc1` (relative stereo), the growth at 10 µM in experiment [1] came out at 5%; in experiment [2] it was 3%; in experiment [3], 13%.
Consider `C=C(C(=O)OC)[C@@H](c1ccccc1)[C@@H](C)O` (relative stereo), for which the growth at 10 µM came to 96% in experiment [1], 27% in experiment [2] and 24% in experiment [3].
In the case of `C=C(C(=O)OC)C(O)c1ccccc1C(F)(F)F` (stereo not given), the growth at 10 µM in experiment [1] is 169%; in experiment [2] it was 142%; in experiment [3], 127%.
`C=C(C(=O)O)C(O)c1ccc(C#N)cc1` (stereo not given): the growth at 10 µM in experiment [1] stood at 108%; in experiment [2], 114%; in experiment [3], 92%.
For `C=C(C[C@@H](c1ccccc1)[C@H](O)c1ccccc1)C(=O)OC` (relative stereo), in that order: 124%, 129% and 59%.
For `C=C(C(=O)O)C(O)c1ccccc1` (stereo not given), in that order: 127%, 110% and 94%.
As for `C=C(C(=O)OC)C(O)c1ccccc1F` (stereo not given), the growth at 10 µM in experiment [1] stood at 157%; in experiment [2] it was 137%; in experiment [3], 128%.
The matching figures for `C=C(C(=O)OC)C(CO)C1CCCCC1` (stereo not given): 164%, 86% and 98%.
For `C=C(C(=O)OC)[C@@H](C)[C@@H](C)O` (relative stereo), in that order: 110%, 122% and 147%.
For `C=C(C(=O)OC)[C@@H](c1ccccc1)[C@H](O[Si](C)(C)C(C)(C)C)c1ccccc1` (relative stereo), the values for the growth at 10 µM in experiment [1], in experiment [2] and in experiment [3] were 135%, 117% and 110%, respectively.
For `C=C(C(=O)OC)C(CO)c1ccccc1` (stereo not given), in that order: 102%, 60% and 29%.
For `C=C1C(=O)O[C@@H]2C3O[C@]3(C)CC/C=C(\C)CC[C@@H]12` (stereo not given in full), in that order: 22%, 12% and 11%.
On to `C=C(C(=O)OC)C(O)c1ccccc1` (stereo not given), for which the growth at 10 µM in experiment [1] came out at 118%; in experiment [2] it was 129%; in experiment [3], 119%.
For `C=C(C(=O)O)C(O)c1ccc(OC)cc1` (stereo not given), the growth at 10 µM turned out to be 125% in experiment [1], 110% in experiment [2] and 106% in experiment [3].
The matching figures for `C=C(C(=O)OCC)C(O)c1ccc(OC)cc1` (stereo not given): 108%, 130% and 110%.
The matching figures for `C=C(C(=O)OC)C(O)c1ccc(F)cc1` (stereo not given): 136%, 137% and 118%.
With `C=C(C(=O)Oc1ccccc1)[C@@H](c1ccccc1)[C@H](O)c1ccccc1` (relative stereo), the growth at 10 µM in experiment [1] was found to be 9%; in experiment [2], 1%; in experiment [3] it was 8%.
For `C=C(C(C)=O)[C@@H](c1ccccc1)[C@H](O)c1ccccc1` (relative stereo), in that order: 105%, 104% and 53%.
The matching figures for `C=C(C(=O)OC)C(O)c1ccc([N+](=O)[O-])cc1` (stereo not given): 138%, 123% and 98%.
The matching figures for `C=C(C(=O)OC)[C@@H](CCC)[C@H](O)c1ccccc1` (relative stereo): 104%, 38% and 32%.
On to `C=C1C(=O)OC1c1ccc(C#N)cc1` (stereo not given), for which the growth at 10 µM came to 102% in experiment [1], 116% in experiment [2] and 99% in experiment [3].
For `C=C1C(=O)OC1c1ccc([N+](=O)[O-])cc1` (stereo not given), in that order: 136%, 133% and 123%.
The matching figures for `C=C(C(=O)OC)C(C)CO` (stereo not given): 120%, 126% and 124%.
Take `C=C(C(=O)OC)[C@@H](c1ccccc1)[C@H](OC)c1ccccc1` (relative stereo): the values for the growth at 10 µM in experiment [1], in experiment [2] and in experiment [3] were 123%, 94% and 102%, respectively.
For `C=C(CC(O)c1ccccc1)C(=O)OC` (stereo not given), in that order: 67%, 1% and 14%.
The matching figures for `C=C(C(=O)OC)[C@@H](c1ccccc1)[C@H](O)CCC` (relative stereo): 33%, 8% and 16%.
In the case of `C=C(C(=O)OC)[C@@H](c1ccccc1)[C@H](O)C1CCCCC1` (relative stereo), the growth at 10 µM in experiment [1] was determined as 83%; in experiment [2], 23%; in experiment [3] it was 29%.
Take `C=C1C(=O)O[C@H](c2ccccc2)[C@@H]1c1ccccc1` (relative stereo): the growth at 10 µM in experiment [1] was determined as 12%; in experiment [2], 3%; in experiment [3], 9%.
The matching figures for `C=C(C(=O)OC)C(O)c1cccc(F)c1` (stereo not given): 166%, 134% and 129%.
For `C=C(C(=O)OC)C(O)c1c(F)c(F)c(F)c(F)c1F` (stereo not given), in that order: 147%, 117% and 111%.
With `C=C(C(=O)OC)C(O)c1ccc(C(F)(F)F)cc1` (stereo not given), the results for the growth at 10 µM in experiment [1], in experiment [2] and in experiment [3] were 93%, 69% and 27%, respectively.
For `C=C(C(=O)O)C(O)c1ccc([N+](=O)[O-])cc1` (stereo not given), the growth at 10 µM in experiment [1] turned out to be 134%; in experiment [2], 124%; in experiment [3], 130%.
The matching figures for `C=C(C(=O)OC)[C@@H](C)[C@H](O)c1ccccc1` (relative stereo): 91%, 49% and 32%.
With `C=C(C(=O)OC)C(O)c1ccc(C#N)cc1` (stereo not given), the figures for the growth at 10 µM in experiment [1], in experiment [2] and in experiment [3] were 131%, 126% and 94%, respectively.
For `C=C(C(=O)OC)[C@@H](c1ccccc1)[C@H](O)Cc1ccccc1` (relative stereo), the figures for the growth at 10 µM in experiment [1], in experiment [2] and in experiment [3] were 14%, 6% and 16%, respectively.
The matching figures for `O=C1O[C@H](c2ccccc2)[C@H](c2ccccc2)/C1=C\c1ccccc1` (relative stereo): 105%, 117% and 87%.
